Test results: patent US9206156B2, “Substituted indole derivatives” (GRÜNENTHAL GMBH, priority 2008, dated 2015)

Key:
ORL1 receptor = molecular target: T1, ORL1 receptor (Homo sapiens, UniProt P41146); assay: ORL1 receptor binding assay with 3H-nociceptin/orphanin FQ (WGA-SPA beads); conditions: c=1 μM test substance; 0.5 nM 3H-nociceptin/orphanin FQ; membranes of recombinant CHO-ORL1 cells
T1 construct: expressed in transfected cells; host or cells: CHO (recombinant CHO-ORL1 cells), membranes
In short: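 Radioligand displacement on membranes from recombinant CHO-ORL1 cells, 0.5 nM 3H-nociceptin/orphanin FQ, 20 μg membrane protein per batch in 50 mM Hepes pH 7.4, 10 mM MgCl2, 1 mM EDTA. Incubated 1 h at room temperature with WGA-SPA beads, scintillation read. Reported as Ki (nM) or % inhibition at 1 μM.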

human μ-opiate receptor = molecular target: T2, human μ-opiate receptor (Homo sapiens, UniProt P35372); assay: μ-opiate receptor binding assay with [3H] naloxone (WGA-SPA beads); conditions: 1 μmol/l test substance, 1 nmol/l [3H] naloxone, CHO-K1 cell membranes expressing human μ-opiate receptor
T2 construct: purchased NEN, Zaventem, Belgium RB-HOM; host or cells: CHO-K1 cells (membrane preparation)
In short: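 CHO-K1 membranes expressing human μ-opiate receptor incubated 90 min at room temperature with 1 nmol/l [3H]naloxone and WGA-SPA beads in 50 mmol/l Tris-HCl with 0.05% azide, 0.06% BSA. Non-specific binding with 25 μmol/l naloxone; % inhibition at 1 μmol/l, or IC50 converted to Ki via Cheng-Prusoff.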

T2 sequence (P35372 whole entry): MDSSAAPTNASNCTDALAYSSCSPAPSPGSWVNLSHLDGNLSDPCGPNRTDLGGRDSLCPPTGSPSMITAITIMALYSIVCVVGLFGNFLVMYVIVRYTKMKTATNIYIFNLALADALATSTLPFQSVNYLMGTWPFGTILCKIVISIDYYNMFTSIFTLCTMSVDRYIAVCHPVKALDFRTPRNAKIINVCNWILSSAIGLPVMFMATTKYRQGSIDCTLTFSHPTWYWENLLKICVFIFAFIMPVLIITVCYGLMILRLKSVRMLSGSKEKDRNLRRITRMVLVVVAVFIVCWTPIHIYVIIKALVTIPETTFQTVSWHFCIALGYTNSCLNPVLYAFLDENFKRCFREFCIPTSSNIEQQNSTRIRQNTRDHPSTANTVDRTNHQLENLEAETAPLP
T1 sequence (P41146 whole entry): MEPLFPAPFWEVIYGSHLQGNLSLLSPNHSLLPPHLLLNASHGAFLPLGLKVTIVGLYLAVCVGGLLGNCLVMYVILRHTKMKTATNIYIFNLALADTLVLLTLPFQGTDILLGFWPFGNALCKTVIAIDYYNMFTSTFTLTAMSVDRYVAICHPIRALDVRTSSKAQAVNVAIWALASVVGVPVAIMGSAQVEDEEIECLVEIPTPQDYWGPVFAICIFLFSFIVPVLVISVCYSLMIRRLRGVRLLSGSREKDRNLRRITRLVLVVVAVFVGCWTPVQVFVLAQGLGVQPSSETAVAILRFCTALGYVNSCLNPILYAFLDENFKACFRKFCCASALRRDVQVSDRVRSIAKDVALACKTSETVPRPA

| Structure (SMILES) | inhibition at 1 µM (ORL1 receptor) | inhibition at 1 µM (human μ-opiate receptor) | % Inhibition (ORL1) at 1 μM (ORL1 receptor) | % Inhibition (μ) at 1 μM (human μ-opiate receptor) |
| --- | --- | --- | --- | --- |
| CN(CCCN1CCC(c2ccccc2)(N(C)C)CC1)C(=O)CCc1cn(C)c2ccccc12 [Example 50, N-(3-(4-(Dimethylamino)-4-phenylpiperidin-1-yl)propyl)-N-methyl-3-(1-methyl-1H-indol-3-yl)propanamide] | 39% | 79% | – | – |
| CN(CCN1CCC(c2ccccc2)(N(C)C)CC1)Cc1cccc2[nH]ccc12 [Example 195, 1-(2-(((1H-indol-4-yl)methyl)(methy)amino)ethyl)-N,N-dimethyl-4-phenylpiperidin-4-amine] | – | – | 56% | 78% |
| CN(C)C1(c2cccs2)CCN(CCNC(=O)c2ccc3ccn(C)c3c2)CC1 [Example 9, N-(2-(4-(Dimethylamino)-4-(thiophen-2-yl)piperidin-1-yl)ethyl)-1-methyl-1H-indole-6-carboxamide] | 77% | 101% | – | – |
| CC(C)C(C(=O)N1CCC(c2ccccc2)(N(C)C)CC1)N(C)C(=O)CCc1cn(C)c2ccccc12 (stereo not shown) [Example 132, N-(1-(4-(dimethylamino)-4-phenylpiperidin-1-yl)-3-methyl-1-oxobutan-2-yl)-N-methyl-3-(1-methyl-1H-indol-3-yl)propanamide] | 34% | 63% | – | – |
| CN(CCN1CCC(c2ccccc2)(N(C)C)CC1)Cc1ccc2[nH]ccc2c1 [Example 68, 1-(2-(((1H-Indol-5-yl)methyl)(methyl)amino)ethyl)-N,N-dimethyl-4-phenylpiperidin-4-amine] | 65% | 93% | – | – |
| CC(C)C(CC(=O)N(C)CCCN1CCC(c2cccs2)(N(C)C)CC1)c1c[nH]c2ccccc12 (stereo not shown) [Example 23, N-(3-(4-(Dimethylamino)-4-(thiophen-2-yl)piperidin-1-yl)propyl)-3-(1H-indol-3-yl)-N,4-dimethylpentanamide] | 53% | 86% | – | – |
| CN(CCN1CCC(c2ccccc2)(N2CCCC2)CC1)C(=O)c1ccc2ccn(C)c2c1 [Example 37, N,1-Dimethyl-N-(2-(4-phenyl-4-(pyrrolidin-1-yl)piperidin-1-yl)ethyl)-1H-indole-6-carboxamide] | 16% | 47% | – | – |
| Cc1[nH]c2ccccc2c1CNCCC(=O)N1CCC(c2ccccc2)(N(C)C)CC1 [Example 167, 1-(4-(dimethylamino)-4-phenylpiperidin-1-yl)-3-((2-methyl-1H-indol-3-yl)methylamino)propan-1-one] | 65% | 86% | – | – |
| CC(C)C(C(=O)N1CCC(c2ccccc2)(N(C)C)CC1)N(C)Cc1ccc2cc[nH]c2c1 (stereo not shown) [Example 149, 2-(((1H-indol-6-yl)methyl)(methyl)amino)-1-(4-(dimethylamino)-4-phenylpiperidin-1-yl)-3-methylbutan-1-one] | 52% | 54% | – | – |
| CC(C)C(C(=O)N1CCC(c2ccccc2)(N(C)C)CC1)N(C)Cc1ccc2[nH]ccc2c1 (stereo not shown) [Example 146, 2-(((1H-indol-5-yl)methyl)(methyl)amino)-1-(4-(dimethylamino)-4-phenylpiperidin-1-yl)-3-methylbutan-1-one] | 24% | 53% | – | – |
| CCCCC1(N(C)C)CCN(CCN(C)C(=O)c2cc3cc(F)ccc3[nH]2)CC1 [Example 52, N-(2-(4-Butyl-4-(dimethylamino)piperidin-1-yl)ethyl)-5-fluoro-N-methyl-1H-indole-2-carboxamide] | 28% | 65% | – | – |
| CN(C)C1(c2cccs2)CCN(C(=O)CC(NCc2cccc3cc[nH]c23)c2ccccc2)CC1 (stereo not shown) [Example 173, 3-((1H-indol-7-yl)methylamino)-1-(4-(dimethylamino)-4-(thiophen-2-yl)piperidin-1-yl)-3-phenylpropan-1-one] | 74% | 96% | – | – |
| CN(C)C1(c2cccs2)CCN(C(=O)CC(NCc2cccc3[nH]ccc23)c2ccccc2)CC1 (stereo not shown) [Example 174, 3-((1H-indol-4-yl)methylamino)-1-(4-(dimethylamino)-4-(thiophen-2-yl)piperidin-1-yl)-3-phenylpropan-1-one] | 68% | 92% | – | – |
| CN(C)C1(c2ccccc2)CCN(C(=O)C2CN(Cc3ccc4cc[nH]c4c3)c3ccccc32)CC1 (stereo not shown) [Example 170, (1-((1H-indol-6-yl)methyl)indolin-3-yl)(4-(dimethylamino)-4-phenylpiperidin-1-yl)methanone] | 38% | 80% | – | – |
| Cc1c(CNCCN2CCC(c3cccs3)(N(C)C)CC2)c2ccccc2n1C [Example 80, 1-(2-((1,2-Dimethyl-1H-indol-3-yl)methylamino)ethyl)-N,N-dimethyl-4-(thiophen-2-yl)pipendin-4-amine] | 97% | 101% | – | – |
| CN(C)C1(c2cccs2)CCN(C(=O)CNC(=O)c2cccc3c2ccn3C)CC1 [Example 135, N-(2-(4-(dimethylamino)-4-(thiophen-2-yl)piperidin-1-yl)-2-oxoethyl)-1-methyl-1H-indole-4-carboxamide] | 27% | 61% | – | – |
| CN(C)C1(c2ccccc2)CCN(C(=O)C2CCCN(Cc3cccc4cc[nH]c34)C2)CC1 (stereo not shown) [Example 158, (1-((1H-indol-7-yl)methyl)piperidin-3-yl)(4-(dimethylamino)-4-phenylpiperidin-1-yl)methanone] | 61% | 93% | – | – |
| CN(CCN1CCC(c2ccccc2)(N(C)C)CC1)C(=O)Cc1c[nH]c2cc(F)ccc12 [Example 90, N-(2-(4-(dimethylamino)-4-phenylpiperidin-1-yl)ethyl)-2-(6-fluoro-1H-indol-3-yl)-N-methylacetamide] | – | – | 90% | 99% |
| CCCCC1(N(C)C)CCN(CCN(C)C(=O)Cc2c[nH]c3cc(F)ccc23)CC1 [Example 112, N-(2-(4-butyl-4-(dimethylamino)piperidin-1-yl)ethyl)-2-(6-fluoro-1H-indol-3-yl)-N-methylacetamide] | 59% | 92% | – | – |
| CN(CCN1CCC(c2ccccc2)(N(C)C)CC1)C(=O)C1CCCc2c1[nH]c1ccc(Cl)cc21 (stereo not shown) [Example 25, 6-Chloro-N-(2-(4-(dimethylamino)-4-phenylpiperidin-1-yl)ethyl)-N-methyl-2,3,4,9-tetrahydro-1H-carbazole-1-carboxamide] | – | – | 62% | 86% |
| CN(C)C1(c2cccs2)CCN(CCNC(=O)c2cccc3c2ccn3C)CC1 [Example 10, N-(2-(4-(Dimethylamino)-4-(thiophen-2-yl)piperidin-1-yl)ethyl)-1-methyl-1H-indole-4-carboxamide] | 56% | 99% | – | – |
| CN(CCN1CCC(c2ccccc2)(N(C)C)CC1)Cc1c[nH]c2ccc(Cl)cc12 [Example 183, 1-(2-(((5-chloro-1H-indol-3-yl)methyl)(methy)amino)ethyl)-N,N-dimethyl-4-phenylpiperidin-4-amine] | – | – | 95% | 100% |
| CN(CCN1CCC(c2ccccc2)(N2CCCC2)CC1)C(=O)c1cc2cc(F)ccc2[nH]1 [Example 51, 5-Fluoro-N-methyl-N-(2-(4-phenyl-4-(pyrrolidin-1-yl)piperidin-1-yl)ethyl)-1H-indole-2-carboxamide] | 26% | 43% | – | – |
